Experiments:
[1] = target: RAC-alpha serine/threonine-protein kinase (Homo sapiens) (UniProt P31749); assay: […] against PKB/Akt at 10 uM by HTRF method
[2] = target: cAMP-dependent protein kinase (PKA) (Homo sapiens) (UniProt P22694+P17612+P22612); assay: Inhibition against PKA at 10 uM by HTRF method; format: protein assay; design: scale not given: the % may be the effect or the level left
[3] = target: Bcr/Abl fusion protein (Homo sapiens) (UniProt P00519+P11274); assay: Inhibition of bcr-Abl at 10 uM by HTRF method; format: protein assay; design: scale not given: the % may be the effect or the level left
[4] = target: Epidermal growth factor receptor (Homo sapiens) (UniProt P00533); assay: […] against ErbB1 at 10 uM by HTRF method
[5] = Solubility in water; format: physicochemical
[6] = target: Fibroblast growth factor receptor 1 (Homo sapiens) (UniProt P11362); assay: Percent inhibition against FGFR1 at 10 uM by HTRF method; design: scale not given: the % may be the effect or the level left
[7] = target: T1, Ephrin type-B receptor 4 (Homo sapiens) (UniProt P54760); assay: Percent inhibition against EphB4 at 10 uM by HTRF method; design: scale not given: the % may be the effect or the level left
T1 sequence (whole entry): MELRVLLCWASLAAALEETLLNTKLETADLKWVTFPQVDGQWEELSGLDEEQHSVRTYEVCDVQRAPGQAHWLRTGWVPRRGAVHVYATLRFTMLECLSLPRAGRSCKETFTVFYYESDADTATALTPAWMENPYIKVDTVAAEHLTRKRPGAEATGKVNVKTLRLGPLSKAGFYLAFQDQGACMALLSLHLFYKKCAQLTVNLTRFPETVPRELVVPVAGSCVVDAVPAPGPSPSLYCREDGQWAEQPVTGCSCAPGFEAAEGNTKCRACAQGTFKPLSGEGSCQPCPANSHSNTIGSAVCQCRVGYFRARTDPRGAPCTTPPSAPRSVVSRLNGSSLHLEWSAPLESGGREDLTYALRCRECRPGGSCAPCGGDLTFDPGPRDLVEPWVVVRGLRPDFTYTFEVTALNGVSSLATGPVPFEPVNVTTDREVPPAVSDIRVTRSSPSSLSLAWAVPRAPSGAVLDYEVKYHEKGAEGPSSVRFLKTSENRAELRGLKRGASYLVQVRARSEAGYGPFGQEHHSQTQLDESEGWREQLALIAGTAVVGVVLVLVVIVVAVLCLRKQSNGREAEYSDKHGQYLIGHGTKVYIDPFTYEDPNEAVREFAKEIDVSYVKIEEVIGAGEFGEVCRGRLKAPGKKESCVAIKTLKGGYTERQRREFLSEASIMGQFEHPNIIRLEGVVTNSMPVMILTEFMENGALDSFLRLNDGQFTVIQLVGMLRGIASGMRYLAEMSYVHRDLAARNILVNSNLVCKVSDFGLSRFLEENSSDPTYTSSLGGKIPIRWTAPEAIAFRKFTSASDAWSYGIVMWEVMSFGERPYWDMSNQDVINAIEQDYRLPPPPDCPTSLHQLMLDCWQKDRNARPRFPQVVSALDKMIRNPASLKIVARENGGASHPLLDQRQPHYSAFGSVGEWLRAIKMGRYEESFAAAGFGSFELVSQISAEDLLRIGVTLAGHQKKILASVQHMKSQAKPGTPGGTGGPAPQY

[8] = target: Hepatocyte growth factor receptor (Homo sapiens) (UniProt P08581); assay: Percent inhibition against c-Met at 10 uM by HTRF method; design: scale not given: the % may be the effect or the level left
[9] = target: Receptor tyrosine-protein kinase erbB-2 (Homo sapiens) (UniProt P04626); assay: […] against ErbB2 at 10 uM by HTRF method
[10] = target: T2, Vascular endothelial growth factor receptor 2 (Homo sapiens, UniProt P35968); assay: Inhibition of VEGFR2 in 293 adenovirus transfected kidney cells by cell-based ELISA assay
[11] = target: Glycogen synthase kinase-3 beta (Homo sapiens) (UniProt P49841); assay: Inhibition against GSK3-beta at 10 uM by HTRF method; design: scale not given: the % may be the effect or the level left
[12] = target: Cyclin-dependent kinase 2 (Homo sapiens) (UniProt P24941); assay: […] against Cdk2 at 10 uM by HTRF method
[13] = target: Receptor-type tyrosine-protein kinase FLT3 (Homo sapiens) (UniProt P36888); assay: Inhibition of Flt3 at 10 uM by HTRF method; design: scale not given: the % may be the effect or the level left
[14] = target: T2, Vascular endothelial growth factor receptor 2; assay: Inhibition of VEGFR2 by enzymatic assay
[15] = target: Insulin-like growth factor 1 receptor (Homo sapiens) (UniProt P08069); assay: […] against IGF1R at 10 uM by HTRF method
[16] = target: Cyclin-dependent kinase 5 (Homo sapiens) (UniProt Q00535); assay: […] against Cdk5 at 10 uM by HTRF method
[17] = target: Vascular endothelial growth factor receptor 1 (Homo sapiens, UniProt P17948); assay: Inhibition of VEGFR1 by enzymatic assay

Receptor-type tyrosine-protein kinase FLT3 (Homo sapiens), sequence (P36888 whole entry): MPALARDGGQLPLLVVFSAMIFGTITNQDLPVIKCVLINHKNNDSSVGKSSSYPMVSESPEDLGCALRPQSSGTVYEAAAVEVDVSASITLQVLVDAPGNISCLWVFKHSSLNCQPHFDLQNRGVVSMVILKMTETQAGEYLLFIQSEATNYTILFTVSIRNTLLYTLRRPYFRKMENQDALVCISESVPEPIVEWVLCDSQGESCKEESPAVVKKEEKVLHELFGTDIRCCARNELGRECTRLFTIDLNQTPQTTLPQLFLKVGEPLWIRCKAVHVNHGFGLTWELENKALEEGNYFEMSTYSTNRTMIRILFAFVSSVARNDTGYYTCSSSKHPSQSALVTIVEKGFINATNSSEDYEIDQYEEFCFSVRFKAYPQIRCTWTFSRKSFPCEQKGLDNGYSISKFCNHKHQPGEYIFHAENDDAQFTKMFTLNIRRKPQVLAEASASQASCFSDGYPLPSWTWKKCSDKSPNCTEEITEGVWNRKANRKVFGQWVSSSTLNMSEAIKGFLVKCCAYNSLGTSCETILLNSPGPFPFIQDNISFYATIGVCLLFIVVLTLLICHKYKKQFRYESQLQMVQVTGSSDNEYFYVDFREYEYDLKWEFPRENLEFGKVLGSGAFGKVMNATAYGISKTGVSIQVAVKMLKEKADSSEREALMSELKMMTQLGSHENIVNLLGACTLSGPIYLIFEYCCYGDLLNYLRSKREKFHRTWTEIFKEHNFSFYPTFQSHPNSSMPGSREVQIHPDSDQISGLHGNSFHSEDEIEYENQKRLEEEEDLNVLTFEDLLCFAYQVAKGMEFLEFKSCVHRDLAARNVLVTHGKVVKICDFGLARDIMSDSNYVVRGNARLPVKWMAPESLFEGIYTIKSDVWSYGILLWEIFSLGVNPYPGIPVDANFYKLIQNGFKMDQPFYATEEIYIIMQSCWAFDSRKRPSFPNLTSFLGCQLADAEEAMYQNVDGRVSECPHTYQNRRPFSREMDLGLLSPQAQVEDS
Hepatocyte growth factor receptor (Homo sapiens), sequence (P08581 whole entry): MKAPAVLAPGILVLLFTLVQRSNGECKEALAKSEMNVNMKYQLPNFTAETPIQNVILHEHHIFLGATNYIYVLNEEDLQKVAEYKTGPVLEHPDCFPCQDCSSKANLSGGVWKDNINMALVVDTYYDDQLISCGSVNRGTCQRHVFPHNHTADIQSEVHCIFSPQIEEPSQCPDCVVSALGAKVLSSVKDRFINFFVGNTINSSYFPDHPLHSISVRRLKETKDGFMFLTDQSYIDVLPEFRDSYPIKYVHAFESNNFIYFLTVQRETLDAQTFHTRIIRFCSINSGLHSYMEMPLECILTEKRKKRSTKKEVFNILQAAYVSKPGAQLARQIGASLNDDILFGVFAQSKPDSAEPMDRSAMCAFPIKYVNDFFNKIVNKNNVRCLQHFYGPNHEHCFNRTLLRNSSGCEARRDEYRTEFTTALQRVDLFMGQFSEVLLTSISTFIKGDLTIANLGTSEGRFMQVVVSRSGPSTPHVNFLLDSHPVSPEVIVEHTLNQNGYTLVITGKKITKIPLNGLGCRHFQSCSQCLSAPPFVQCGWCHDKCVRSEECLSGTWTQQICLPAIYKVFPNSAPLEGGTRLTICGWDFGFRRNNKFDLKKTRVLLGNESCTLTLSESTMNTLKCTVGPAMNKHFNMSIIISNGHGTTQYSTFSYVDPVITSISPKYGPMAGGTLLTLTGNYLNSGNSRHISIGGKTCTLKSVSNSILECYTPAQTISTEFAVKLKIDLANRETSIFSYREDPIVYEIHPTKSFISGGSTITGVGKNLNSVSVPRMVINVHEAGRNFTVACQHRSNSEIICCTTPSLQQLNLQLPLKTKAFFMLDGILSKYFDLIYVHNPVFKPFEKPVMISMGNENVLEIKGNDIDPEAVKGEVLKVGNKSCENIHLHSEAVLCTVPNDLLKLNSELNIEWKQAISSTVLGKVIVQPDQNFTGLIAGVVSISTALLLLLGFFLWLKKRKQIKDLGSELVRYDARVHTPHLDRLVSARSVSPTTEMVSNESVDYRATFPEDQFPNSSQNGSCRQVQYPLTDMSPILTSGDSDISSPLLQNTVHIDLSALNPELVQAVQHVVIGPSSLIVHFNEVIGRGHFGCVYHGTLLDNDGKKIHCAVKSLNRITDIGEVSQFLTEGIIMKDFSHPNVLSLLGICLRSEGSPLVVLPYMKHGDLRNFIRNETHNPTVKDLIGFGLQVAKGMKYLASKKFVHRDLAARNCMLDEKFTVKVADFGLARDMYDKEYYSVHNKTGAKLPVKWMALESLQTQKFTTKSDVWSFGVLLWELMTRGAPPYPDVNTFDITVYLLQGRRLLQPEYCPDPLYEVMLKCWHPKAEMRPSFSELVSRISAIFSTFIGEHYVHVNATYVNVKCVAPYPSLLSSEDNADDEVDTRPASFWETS
Cyclin-dependent kinase 5 (Homo sapiens), sequence (Q00535 whole entry, looked up): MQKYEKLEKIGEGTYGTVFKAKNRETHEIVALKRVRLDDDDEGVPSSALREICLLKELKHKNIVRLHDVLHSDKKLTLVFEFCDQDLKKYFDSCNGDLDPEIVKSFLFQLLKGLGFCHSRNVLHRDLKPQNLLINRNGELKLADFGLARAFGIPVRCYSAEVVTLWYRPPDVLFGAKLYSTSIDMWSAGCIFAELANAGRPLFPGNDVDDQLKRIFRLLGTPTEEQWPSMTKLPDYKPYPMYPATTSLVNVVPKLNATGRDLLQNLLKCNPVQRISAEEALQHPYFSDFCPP
Epidermal growth factor receptor (Homo sapiens), sequence (P00533 whole entry): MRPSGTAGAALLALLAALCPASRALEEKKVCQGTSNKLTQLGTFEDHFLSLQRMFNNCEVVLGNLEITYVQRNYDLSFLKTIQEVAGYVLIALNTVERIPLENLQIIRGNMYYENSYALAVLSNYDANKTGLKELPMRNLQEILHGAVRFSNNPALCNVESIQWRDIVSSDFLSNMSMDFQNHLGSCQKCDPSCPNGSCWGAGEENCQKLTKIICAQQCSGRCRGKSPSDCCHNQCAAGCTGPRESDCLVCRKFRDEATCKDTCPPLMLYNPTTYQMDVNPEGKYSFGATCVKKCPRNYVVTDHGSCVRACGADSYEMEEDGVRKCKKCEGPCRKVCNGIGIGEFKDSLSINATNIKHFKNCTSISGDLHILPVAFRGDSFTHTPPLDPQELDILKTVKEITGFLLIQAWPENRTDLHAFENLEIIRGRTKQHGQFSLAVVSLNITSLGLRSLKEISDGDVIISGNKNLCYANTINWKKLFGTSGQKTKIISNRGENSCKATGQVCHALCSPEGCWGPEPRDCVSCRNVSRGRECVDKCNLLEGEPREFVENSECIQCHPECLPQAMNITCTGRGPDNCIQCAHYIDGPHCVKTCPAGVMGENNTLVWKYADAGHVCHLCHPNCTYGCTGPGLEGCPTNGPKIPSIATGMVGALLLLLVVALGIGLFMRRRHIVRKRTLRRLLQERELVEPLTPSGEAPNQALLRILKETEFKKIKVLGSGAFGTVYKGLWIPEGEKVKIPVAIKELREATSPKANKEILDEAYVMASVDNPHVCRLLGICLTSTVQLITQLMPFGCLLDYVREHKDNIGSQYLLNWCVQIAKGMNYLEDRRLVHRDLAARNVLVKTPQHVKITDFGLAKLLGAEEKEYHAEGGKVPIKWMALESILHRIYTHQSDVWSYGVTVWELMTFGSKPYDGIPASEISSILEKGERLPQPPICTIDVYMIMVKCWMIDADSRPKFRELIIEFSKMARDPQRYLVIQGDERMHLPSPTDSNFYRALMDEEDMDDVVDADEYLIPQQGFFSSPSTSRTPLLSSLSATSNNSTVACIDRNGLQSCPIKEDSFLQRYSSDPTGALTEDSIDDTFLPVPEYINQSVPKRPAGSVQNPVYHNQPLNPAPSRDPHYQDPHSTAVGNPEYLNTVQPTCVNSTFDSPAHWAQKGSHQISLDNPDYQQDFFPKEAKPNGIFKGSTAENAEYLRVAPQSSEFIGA
RAC-alpha serine/threonine-protein kinase (Homo sapiens), sequence (P31749 whole entry): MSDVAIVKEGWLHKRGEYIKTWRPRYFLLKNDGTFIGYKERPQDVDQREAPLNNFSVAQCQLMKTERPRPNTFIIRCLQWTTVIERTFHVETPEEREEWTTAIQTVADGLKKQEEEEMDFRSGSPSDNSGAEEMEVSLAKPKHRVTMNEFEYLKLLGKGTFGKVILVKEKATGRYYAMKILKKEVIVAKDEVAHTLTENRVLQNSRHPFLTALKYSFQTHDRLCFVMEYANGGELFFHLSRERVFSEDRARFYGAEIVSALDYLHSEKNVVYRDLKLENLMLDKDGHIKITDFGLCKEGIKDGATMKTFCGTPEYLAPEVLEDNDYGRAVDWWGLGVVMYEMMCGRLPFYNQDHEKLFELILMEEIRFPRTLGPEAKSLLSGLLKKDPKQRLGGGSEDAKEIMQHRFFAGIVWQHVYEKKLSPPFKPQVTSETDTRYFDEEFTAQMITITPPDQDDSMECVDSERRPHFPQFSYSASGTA
Glycogen synthase kinase-3 beta (Homo sapiens), sequence (P49841 whole entry, looked up): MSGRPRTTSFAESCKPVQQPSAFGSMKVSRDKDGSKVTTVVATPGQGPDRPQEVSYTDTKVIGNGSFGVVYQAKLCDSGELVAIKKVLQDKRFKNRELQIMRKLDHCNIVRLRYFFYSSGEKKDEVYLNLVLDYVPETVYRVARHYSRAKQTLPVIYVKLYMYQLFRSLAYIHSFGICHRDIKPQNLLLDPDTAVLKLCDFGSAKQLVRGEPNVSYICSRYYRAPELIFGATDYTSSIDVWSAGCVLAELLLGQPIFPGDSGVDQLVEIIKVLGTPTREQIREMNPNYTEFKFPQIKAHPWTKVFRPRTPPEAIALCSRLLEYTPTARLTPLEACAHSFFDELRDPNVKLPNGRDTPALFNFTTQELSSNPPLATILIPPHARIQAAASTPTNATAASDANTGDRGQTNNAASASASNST

Row | Structure (SMILES) | Activity [1] | Activity [2] | Activity [3] | Percent inhibition [4] | solubility [5] | Activity [6] | Activity [7] | Activity [8] | Activity [9] | IC50 [10] | Activity [11] | Percent inhibition [12] | Activity [13] | IC50 [14] | Activity [15] | Activity [16] | IC50 [17]
1 | COc1cccc(Nc2nnc(-c3c(NCc4ccncc4)ncn3C)o2)c1 | < 30% | < 30% | < 30% | < 30% | > 5 mM | < 30% | < 30% | < 30% | < 30% | 64 nM | < 30% | < 30% | < 30% | 130 nM | < 30% | < 30% | 670 nM
2 | Cn1cnc(NCc2ccccn2)c1-c1nnc(Nc2ccc(Cl)cc2)o1 | < 30% | < 30% | < 30% | < 30% | – | < 30% | < 30% | < 30% | < 30% | > 10000 nM | < 30% | < 30% | < 30% | > 10000 nM | < 30% | < 30% | > 10000 nM
3 | Cn1cnc(NCc2ccncc2)c1-c1nnc(Nc2cccc(OC(F)(F)F)c2)o1 | < 30% | < 30% | < 30% | < 30% | – | < 30% | < 30% | < 30% | < 30% | 130 nM | < 30% | < 30% | < 30% | 46 nM | < 30% | < 30% | 560 nM
4 | Cn1cnc(NCc2ccncc2)c1-c1nnc(Nc2ccc(OC(F)(F)F)cc2)o1 | < 30% | < 30% | < 30% | < 30% | > 5 mM | < 30% | < 30% | < 30% | < 30% | 66 nM | < 30% | < 30% | < 30% | 93 nM | < 30% | < 30% | 160 nM
5 | Cn1cnc(NCc2ccc(F)c(F)c2)c1-c1nnc(Nc2ccc(Cl)cc2)o1 | < 30% | < 30% | < 30% | < 30% | – | < 30% | < 30% | < 30% | < 30% | 5650 nM | < 30% | < 30% | < 30% | 1860 nM | < 30% | < 30% | 3310 nM
6 | Cn1cnc(NCc2ccncc2)c1-c1nnc(Nc2ccc(C(C)(C)C)cc2)o1 | < 30% | < 30% | < 30% | < 30% | – | < 30% | < 30% | < 30% | < 30% | 1050 nM | < 30% | < 30% | < 30% | 380 nM | < 30% | < 30% | 890 nM

The remaining lines, values ahead:

Row | Activity [1] | Activity [2] | Activity [3] | Percent inhibition [4] | solubility [5] | Activity [6] | Activity [7] | Activity [8] | Activity [9] | IC50 [10] | Activity [11] | Percent inhibition [12] | Activity [13] | IC50 [14] | Activity [15] | Activity [16] | IC50 [17] | Structure (SMILES)
7 | < 30% | < 30% | < 30% | < 30% | > 5 mM | < 30% | < 30% | < 30% | < 30% | 82 nM | < 30% | < 30% | < 30% | 73 nM | < 30% | < 30% | 120 nM | Cn1cnc(NCc2ccncc2)c1-c1nnc(Nc2ccc(C(F)(F)F)cc2)o1
8 | < 30% | < 30% | < 30% | < 30% | – | < 30% | < 30% | < 30% | < 30% | > 10000 nM | < 30% | < 30% | < 30% | > 10000 nM | < 30% | < 30% | > 10000 nM | Cn1cnc(NCc2ccc3ccccc3n2)c1-c1nnc(Nc2ccc(Cl)cc2)o1
9 | < 30% | < 30% | < 30% | < 30% | – | < 30% | < 30% | < 30% | < 30% | > 10000 nM | < 30% | < 30% | < 30% | 3540 nM | < 30% | < 30% | > 10000 nM | Cn1cnc(NCc2cccc3ncccc23)c1-c1nnc(Nc2ccc(Cl)cc2)o1
10 | < 30% | < 30% | < 30% | < 30% | > 5 mM | < 30% | < 30% | < 30% | < 30% | 96 nM | < 30% | < 30% | < 30% | 130 nM | < 30% | < 30% | 460 nM | Cn1cnc(NCc2ccncc2)c1-c1nnc(Nc2ccc(OC(F)(F)Cl)cc2)o1
11 | < 30% | < 30% | < 30% | < 30% | – | < 30% | < 30% | < 30% | < 30% | 100 nM | < 30% | < 30% | < 30% | 43 nM | < 30% | < 30% | 510 nM | Cn1cnc(NCc2ccncc2)c1-c1nnc(Nc2ccc(Cl)c(C(F)(F)F)c2)o1
12 | < 30% | < 30% | < 30% | < 30% | > 5 mM | < 30% | < 30% | < 30% | < 30% | 93 nM | < 30% | < 30% | < 30% | 52 nM | < 30% | < 30% | 590 nM | COc1ccc(Nc2nnc(-c3c(NCc4ccncc4)ncn3C)o2)cc1OC

Source: ChEMBL document CHEMBL1139649, “Hetaryl imidazoles: a novel dual inhibitors of VEGF receptors I and II” (Bioorg Med Chem Lett, 2006)
